In patent publication US9249115B2, “N,N1 substituted piperazines having combined antiaggregant, anticoagulant and vasodilatory activity, and method for producing same” (Vertex Closed Joint Stock Company, priority 2011, dated 2016):

Columns and labels:
[1] = tested on: Collagen-induced thrombocyte aggregation; assay: Collagen-induced thrombocyte aggregation, donor human thrombocyte enriched plasm; type: cell-based; conditions: collagen inductor; for MA, %: human thrombocyte plasm; for inhibition at 500 µM / inhibition at 1250 µM / inhibition at 2500 µM / inhibition at 5000 µM: Homo sapiens, read-out: (MA0-MAx): MA0 * 100%
Protocol: (§1) The study of antiaggregant and anticoagulant properties of N,N′-substituted piperazines on the sample of donor human blood. The blood was collected by donor ulnar vein punction with dry sharp needle without syringe. The administration of drugs that influence on thrombocyte function was cancelled in 7÷10 days before the experiment.
(§2) In graduated plastic centrifuge tube 1 ml of 3.8% basic trisodium citrate solution with pH=7.4 was placed. The ulnar vein was punctuated, the freely effluent blood was collected up to 10 ml mark, the mixture was instantly stirred to prevent air bubbles appearance. The collected and stabilized blood was split in two 5 ml portions in two tubes.
(§3) To obtain thrombocyte enriched plasm the stabilized blood was spinned at 1000 rpm (150 g) for 8 min at room temperature. The repeated spinning of the blood at 3200 rpm (2300 g) for 20 min at 22° C. yielded thrombocyte depleted plasm.
(§4) The study of anticoagulant activity was done within 2 h after thrombocyte enriched plasm obtaining. The plasm was normalized to achieve thrombocyte concentration of 200-250×10^9/L by addition of thrombocyte-free plasm. The concentration of thrombocytes was measured on SOLAR AR 2110 analyzer.
(§5) Antiaggregant properties of N,N′-substituted piperazines were evaluated by their influence on thrombocyte aggregation in tests with ADP-, collagen- and ristocetin-induced aggregation. To dissolve N,N′-substituted piperazines and to dilute reagents Tris-HCl-buffer with pH=7.4 was used.
(§6) As the general characteristic of thrombocyte aggregation activity the maximum amplitude (MA) of aggregation was taken on. That is the peak value of transmittance coefficient of the sample after aggregation agent introduction expressed in % relative to the transmittance of thrombocyte-free plasm. The response was registered on ascending linear segment of aggregation curve for 16 s.
(§7) The measurements were done using 4-channel CHRONO-LOG 490-4D analyzer (CHRONO-LOG, USA). The temperature in the cell was 37° C., the spinning speed of magnetic stirrer was 1200 rpm.
(§8) In a cuvette 0.5 ml of N,N′-substituted piperazine solution was placed, then 0.4 ml of normalized thrombocyte plasm was added. The mixture was stirred and incubated at 37° C. for 5 min. The cuvette was placed in aggregometer, then 0.05 ml of aggregation inductor solution was added (ADP or collagen or ristocetin). Thrombocyte aggregation was measured for 3 min.
In collagen-induced thrombocyte aggregation test CHRONO-PAR COLLAGEN reagent (CHRONO-LOG, USA) was diluted with buffer solution until collagen concentration reached 10 µg/ml.

[2] = tested on: ADP-induced thrombocyte aggregation; assay: ADP-induced thrombocyte aggregation, donor human thrombocyte enriched plasm; type: cell-based; conditions: ADP inductor; for MA, %: human thrombocyte plasm
Protocol: as §1, §2, §3, §4, §5, §6, §7, §8
ADP-induced reversible thrombocyte aggregation test utilized CHRONO-PAR ADP reagent (CHRONO-LOG, USA) with 10 mol concentration. Primary (reversible) thrombocyte aggregation was evaluated by the response on addition of ADP threshold dose (ADP concentration is 1 mol) to plasm.

[3] = tested on: thrombocyte depleted plasm coagulation; assay: Activated partial thromboplastin time (APTT), anticoagulant properties; type: biochemical, human; conditions: for APTT: thrombocyte depleted plasm
Protocol: as §1, §2, §3
To study anticoagulant properties of N,N′-substituted piperazines activated partial thromboplastin time (APTT) was measured. That is the ability of N,N′-substituted piperazines to increase thrombocyte depleted plasm coagulation time compared to the ability of control sample. The set of reagents for APTT determination (Russian Scientific Research Institute of Hematology and Transfusiology Ministry of Health of Russian Federation by Technical Regulation 9398-214-01966456-99) and COAG-A-MATE® XM coagulometer (ORGANON TEKNIKA, USA) were used.
The solutions of N,N′-substituted piperazines were mixed with thrombocyte depleted plasm at 1:1 ratio, then 0.1 ml of APTT reagent was added, the mixture was incubated in the cuvette for 5 min at 37° C., then 0.1 ml of 0.277% CaCl2 solution was added. The time of coagulation (in seconds) was measured.

[4] = Homo sapiens, 1.25 mmol/L, read-out: (MA0-MAx): MA0 * 100%
[5] = Homo sapiens, 2.50 mmol/L, read-out: (MA0-MAx): MA0 * 100%
[6] = Homo sapiens, 5.0 mmol/L, read-out: (MA0-MAx): MA0 * 100%

Structure (SMILES) | MA, % ([1]; 0.5 mmol/L) [%] | MA, % ([1]; 1.25 mmol/L) [%] | MA, % ([1]; 2.5 mmol/L) [%] | MA, % ([1]; 5.0 mmol/L) [%] | inhibition at 500 µM ([1]; 0.5 mmol/L) [%] | inhibition at 1250 µM ([1]; 1.25 mmol/L) [%] | inhibition at 2500 µM ([1]; 2.5 mmol/L) [%] | inhibition at 5000 µM ([1]; 5.0 mmol/L) [%] | MA, % ([2]; 1.25 mmol/L) [%] | MA, % ([2]; 2.50 mmol/L) [%] | MA, % ([2]; 5.0 mmol/L) [%] | inhibition at 1250 µM [2, 4] [%] | inhibition at 2500 µM [2, 5] [%] | inhibition at 5000 µM [2, 6] [%] | other results
COc1ccc(C(=O)N2CCN(C(=N)NC(=N)N)CC2)c(OC)c1OC.Cl [Example 2, N-carbamidoyl-4-(2,3,4-trimethoxybenzoyl)piperazine-1-carboximidamide hydrochloride] | 73.0 ± 7.3 | 65.10 ± 1.8 | 58.7 ± 2.9 | 24.1 ± 0.8 | 7.9 | 17.9 | 26 | 69.6 | 15.0 ± 1.8 | 8.7 ± 2.2 | 3.1 ± 0.8 | 21.1 | 55 | 84.2 | 
COc1ccc(CN2CCN(C(=N)NC(=N)N)CC2)c(OC)c1OC.Cl [Example 4, N-carbamidoyl-4-(2,3,4-trimethoxybenzyl)piperazine-1-carboximidamide hydrochloride] |  | 59.0 ± 5.9 | 52.2 ± 7.9 | 26.2 ± 3.5 |  | 22.1 | 31 | 65.4 | 10.6 ± 2.0 | 5.7 ± 1.1 | 1.7 ± 0.5 | 42.1 | 68.9 | 90.7 | 
COc1cc(CN2CCN(C(=N)N)CC2)ccc1OCC(C)C.Cl [Example 12, 4-(4-(2-methylpropyloxy)-3-methoxybenzyl)piperazine-1-carboximidamide hydrochloride] | 71.9 ± 5.1 | 63.1 ± 9.1 | 55.4 ± 9.0 | 51.0 ± 7.1 | 6.5 | 16.8 | 28 | 35 | 5.1 ± 2.2 | 1.7 ± 0.3 |  | 67.5 | 89.2 |  | (APTTx-APTT0): APTT0 * 100% ([3]; 1.7 mmol/L): 9.4%; APTT ([3]; 1.7 mmol/L): 50.1 ± 4.0 s; (APTTx-APTT0): APTT0 * 100% ([3]; 2.5 mmol/L): 38.0%; APTT ([3]; 2.5 mmol/L): 63.2 ± 5.1 s; (APTTx-APTT0): APTT0 * 100% ([3]; 4.1 mmol/L): 53.3%; APTT ([3]; 4.1 mmol/L): 70.2 ± 3.2 s; (APTTx-APTT0): APTT0 * 100% ([3]; 8.3 mmol/L): 205.7%; APTT ([3]; 8.3 mmol/L): 140.0 ± 4.7 s; MA, % ([2]; 0.2 mmol/L): 14.1 ± 2.0%; MA, % ([2]; 0.5 mmol/L): 11.2 ± 3.3%; inhibition at 200 µM ([2]; Homo sapiens, 0.2 mmol/L, read-out: (MA0-MAx): MA0 * 100%): 10.2%; inhibition at 500 µM ([2]; Homo sapiens, 0.5 mmol/L, read-out: (MA0-MAx): MA0 * 100%): 28.7%
